Measured values from publication PMC11212140, “Molecular Bidents with Two Electrophilic Warheads as a New Pharmacological Modality” (ACS Central Science, 2024).

Key:
Test in all cases: KiNativ profiling in H3255 cells
Assay type in all cases: cell-based, human
IKKe, TBK1 = settings: 2.5 µM; Lys2; DIKPGNIMR
Summary of the method: (§1)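 Plate H3255 cells, 6.5x10^6 per condition. Treat at 80% confluency with DMSO or 2.5 μM ZNL-0056 for 2 hours. Wash three times in cold PBS, harvest by scraping, pellet, and freeze. ActivX then completes the KiNativ workflow.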

EphA2 = system: T1, EphA2; settings: 2.5 µM; Activation Loop; VLEDDPEATYTTSGGKIPIR
T1 construct: purchased ActivX Biosciences (KiNativ)
Summary of the method: as §1

CDC2 = system: T2, CDC2; settings: 2.5 µM
T2 construct: purchased ActivX Biosciences (KiNativ)
Summary of the method: as §1

p38d, p38g = settings: 2.5 µM; Lys2; DLKPGNLAVNEDCELK
Summary of the method: as §1

PIP4K2A = system: T3, PIP4K2A; settings: 2.5 µM, ATP
T3 construct: purchased ActivX Biosciences (KiNativ)
Summary of the method: as §1

Wee1 = system: T4, Wee1; settings: 2.5 µM; Lys2; YIHSMSLVHMDIKPSNIFISR
T4 construct: purchased ActivX Biosciences (KiNativ)
Summary of the method: as §1

TLK2 = system: T5, TLK2; settings: 2.5 µM
T5 construct: purchased ActivX Biosciences (KiNativ)
Summary of the method: as §1

TNK1 = system: T6, TNK1; settings: 2.5 µM; Lys1; SVPVAVKSLR
T6 construct: purchased ActivX Biosciences (KiNativ)
Summary of the method: as §1

SBK = system: T7, SBK; settings: 2.5 µM; Lys2; DIKPENVLLFDR
T7 construct: purchased ActivX Biosciences (KiNativ)
Summary of the method: as §1

PEK = system: T8, PEK; settings: 2.5 µM; Lys2; DLKPSNIFFTMDDVVK
T8 construct: purchased ActivX Biosciences (KiNativ)
Summary of the method: as §1

MAP2K6 = system: T9, MAP2K6; settings: 2.5 µM
T9 construct: purchased ActivX Biosciences (KiNativ)
Summary of the method: as §1

Erk2 = system: T10, Erk2; settings: 2.5 µM; Lys2; DLKPSNLLLNTTCDLK
T10 construct: purchased ActivX Biosciences (KiNativ)
Summary of the method: as §1

PLK2 = system: T11, PLK2; settings: 2.5 µM; Lys2; DLKLGNFFINEAMELK
T11 construct: purchased ActivX Biosciences (KiNativ)
Summary of the method: as §1

NEK6, NEK7 = settings: 2.5 µM; Lys2; DIKPANVFITATGVVK
Summary of the method: as §1

MAP4K5 = system: T12, MAP4K5; settings: 2.5 µM
T12 construct: purchased ActivX Biosciences (KiNativ)
Summary of the method: as §1

PKD1, PKD2 = settings: 2.5 µM; Lys2; NIVHCDLKPENVLLASADPFPQVK
Summary of the method: as §1

NEK7 = system: T13, NEK7; settings: 2.5 µM; Lys1; AACLLDGVPVALKK
T13 construct: purchased ActivX Biosciences (KiNativ)
Summary of the method: as §1

PCTAIRE1, PCTAIRE3 = settings: 2.5 µM; Lys2; DLKPQNLLINER
Summary of the method: as §1

NDR1, NDR2 = settings: 2.5 µM; Activation Loop; LSDFGLCTGLKK
Summary of the method: as §1

CSK = system: T14, CSK; settings: 2.5 µM
T14 construct: purchased ActivX Biosciences (KiNativ)
Summary of the method: as §1

EphB2 = system: T15, EphB2; settings: 2.5 µM; Activation Loop; FLEDDTSDPTYTSALGGKIPIR
T15 construct: purchased ActivX Biosciences (KiNativ)
Summary of the method: as §1

MAP2K1 = system: T16, MAP2K1; settings: 2.5 µM; Lys2; IMHRDVKPSNILVNSR
T16 construct: purchased ActivX Biosciences (KiNativ)
Summary of the method: as §1

[1] = Protein Kinase Domain, KPLFHGDSEIDQLFR
[2] = Lys2, YLNEIKPPIIHYDLKPGNILLVNGTACGEIK
[3] = Activation Loop, VSDFGLTKEASSTQDTGKLPVK
[4] = Lys1, VAVKCIKNDATAQAFLAEASVMTQLR

Row | SMILES | Inhibition (IKKe, TBK1) [%] | Inhibition (EphA2) [%] | Inhibition (CDC2; Lys1, TTGQVVAMKK) [%] | Inhibition (CDC2; Lys2, DLKPQNLLIDDK) [%] | Inhibition (CDC2; [1]) [%] | Inhibition (p38d, p38g) [%] | Inhibition (PIP4K2A; AKELPTLKDNDFINEGQK) [%] | Inhibition (PIP4K2A; YIIKTITSEDVAEMHNILK) [%] | Inhibition (Wee1) [%] | Inhibition (TLK2; Lys1, YVAVKIHQLNK) [%] | Inhibition (TLK2; [2]) [%] | Inhibition (TNK1) [%] | Inhibition (SBK) [%] | Inhibition (PEK) [%] | Inhibition (MAP2K6; Lys1, HVPSGQIMAVKR) [%] | Inhibition (MAP2K6; Lys2, DVKPSNVLINALGQVK) [%] | Inhibition (Erk2) [%] | Inhibition (PLK2) [%] | Inhibition (NEK6, NEK7) [%] | Inhibition (MAP4K5; Lys1, NVHTGELAAVKIIK) [%] | further results
1 | C=CC(=O)Nc1cc(Nc2nccc(-c3cn(C)c4ccccc34)n2)c(OC)cc1N(C)CCN(C)C [Osimertinib, osimertinib, reference compound] | -9.4 | 18.1 | -1.3 | 29.6 | -18.5 | 11.1 | -3.2 | -14.3 | 6.4 | 25.0 | 3.9 | 58.2 | -14.3 | 7.8 | 6.1 | -10.0 | 1.9 | 10.4 | -8.8 | -13.4 | Inhibition (MAP4K5; Lys2, DIKGANILLTDHGDVK): -6.7%; Inhibition (PKD1, PKD2): -8.5%; Inhibition (NEK7): -12.2%; Inhibition (PCTAIRE1, PCTAIRE3): 8.7%; Inhibition (NDR1, NDR2): -22.1%; Inhibition (CSK; [3]): -3.3%; Inhibition (CSK; Lys1, VAVKCIK): -17.2%; Inhibition (CSK; [4]): 16.1%; Inhibition (EphB2): 1.1%; Inhibition (MAP2K1): -20.8%
2 | C=CC(=O)Nc1cc(C(=O)Nc2nc3cccc(C)c3n2[C@@H]2CCCCN(C(=O)C=C)C2)cs1 [ZNL-0056] | 1.9 | 13.2 | -18.6 | -1.3 | 2.3 | -20.6 | -0.9 | -4.5 | 13.4 | 15.3 | 18.3 | 8.0 | 9.6 | -15.1 | -13.1 | -0.186 | -24.2 | 18.8 | 0.45 | -3.7 | Inhibition (MAP4K5; Lys2, DIKGANILLTDHGDVK): 15.2%; Inhibition (PKD1, PKD2): 7.5%; Inhibition (NEK7): -9.3%; Inhibition (PCTAIRE1, PCTAIRE3): -3.3%; Inhibition (NDR1, NDR2): -7.6%; Inhibition (CSK; [3]): -1.9%; Inhibition (CSK; Lys1, VAVKCIK): -0.8%; Inhibition (CSK; [4]): 6.7%; Inhibition (EphB2): -8.5%; Inhibition (MAP2K1): -10.3%
